Measurements published in publication PMC6946680, “Modulation of brain cation-Cl^− cotransport via the SPAK kinase inhibitor ZT-1a” (Nature Communications, 2020).
“And” between values parts separate entries of the source, which are not always exact repeats. Identical values can stand only once.

Experiments:
KCC3 pThr991 = test: Immunoblot of KCC site 1 phosphorylation (KCC3 Thr991) in HEK-293 cells transfected with FLAG-KCC3; type: cell-based, human; settings: for KCC3 pThr991 / KCC3: Fig S4b
[1] = tested on: KCC3 Thr991Ala/Thr1048Ala; test: 86Rb+ uptake assay for KCC3 double mutant in HEK-293 cells; type: cell-based, human; settings: for 86Rb+ uptake: Fig 3a, T991A/T1048A + 1a (10 µM), replicates
Method: ^86Rb^+ flux assays have been utilized extensively as a reliable measurement of cation chloride cotransporter activity[51]–[54].
Thirty-six hours post transfection, cells were exposed for 30 min to either control isotonic conditions or hypotonic low [Cl^−] conditions (to activate the SPAK/OSR1 pathway), and then treated for an additional 30 min in the same conditions with the indicated ZT-1a concentrations in the presence of 1 mM ouabain and 0.1 mM bumetanide. Ten-minute ^86Rb^+ uptake values were quantified by scintillation counting, normalized per mg protein for each condition, and plotted for both isotonic and hypotonic conditions. ***p < 0.001; **p < 0.01; *p < 0.05; ns—nonsignificant [by one-way ANOVA with post hoc testing (n = 6, error bars represent the mean ± SEM)]. b ^86Rb^+ uptake assays in the presence of ZT-1a measure transport activity of NKCC1. […] Thirty-six hours post transfection, cells were exposed for 30 min to either control isotonic conditions or hypotonic low [Cl^−] conditions (to activate the SPAK/OSR1 pathway), and then treated in the same conditions for an additional 30 min with 10 µM ZT-1a or 0.1 mM bumetanide (Bum) in the presence of 1 mM ouabain (Na^+/K^+-ATPase inhibitor). ^86Rb^+ uptake was allowed to proceed for 10 min and was then quantified by scintillation counting. ^86Rb^+ uptake CPMs were normalized per mg protein and plotted for both isotonic and hypotonic conditions. […] Ten-minute ^86Rb^+ uptake values were quantified by scintillation counting, normalized per mg protein for each condition, and plotted for both isotonic and hypotonic conditions. ***p < 0.001; **p < 0.01; *p < 0.05; ns—nonsignificant [by one-way ANOVA with post hoc testing (n = 6, error bars represent the mean ± SEM)].
This stimulating medium was then removed and replaced with isotonic medium containing inhibitors plus 2 µCi/ml ^86Rb^+. […] Washed cells were lysed in 300 µl of ice-cold lysis buffer and ^86Rb^+ uptake was quantitated by liquid scintillation counting (PerkinElmer).

NKCC1 = test: 86Rb+ uptake assay for NKCC1 activity in HEK-293 cells; type: cell-based; parameters: key to 86Rb+ uptake: 86Rb+ uptake in CPM per mg protein; settings: for 86Rb+ uptake: replicates
Method: Thirty-six hours post transfection, cells were exposed for 30 min to either control isotonic conditions or hypotonic low [Cl^−] conditions (to activate the SPAK/OSR1 pathway), and then treated for an additional 30 min in the same conditions with the indicated ZT-1a concentrations in the presence of 1 mM ouabain and 0.1 mM bumetanide. Ten-minute ^86Rb^+ uptake values were quantified by scintillation counting, normalized per mg protein for each condition, and plotted for both isotonic and hypotonic conditions. ***p < 0.001; **p < 0.01; *p < 0.05; ns—nonsignificant [by one-way ANOVA with post hoc testing (n = 6, error bars represent the mean ± SEM)]. b ^86Rb^+ uptake assays in the presence of ZT-1a measure transport activity of NKCC1. […] Thirty-six hours post transfection, cells were exposed for 30 min to either control isotonic conditions or hypotonic low [Cl^−] conditions (to activate the SPAK/OSR1 pathway), and then treated in the same conditions for an additional 30 min with 10 µM ZT-1a or 0.1 mM bumetanide (Bum) in the presence of 1 mM ouabain (Na^+/K^+-ATPase inhibitor). ^86Rb^+ uptake was allowed to proceed for 10 min and was then quantified by scintillation counting. ^86Rb^+ uptake CPMs were normalized per mg protein and plotted for both isotonic and hypotonic conditions. […] Thirty-six hours post transfection, cells were exposed for 30 min to either control isotonic conditions or hypotonic low [Cl^−] conditions (to activate the SPAK/OSR1 pathway), and then treated for an additional 30 min in the same conditions with the indicated ZT-1a concentrations in the presence of 1 mM ouabain. Ten-minute ^86Rb^+ uptake values were quantified by scintillation counting, normalized per mg protein for each condition, and plotted for both isotonic and hypotonic conditions. ***p < 0.001; **p < 0.01; *p < 0.05; ns—nonsignificant [by one-way ANOVA with post hoc testing (n = 6, error bars represent the mean ± SEM)].
This stimulating medium was then removed and replaced with isotonic medium containing inhibitors plus 2 µCi/ml ^86Rb^+. After incubation for 10 min at 37 °C, cells were rapidly washed three times with the respective ice-cold nonradioactive medium. Washed cells were lysed in 300 µl of ice-cold lysis buffer and ^86Rb^+ uptake was quantitated by liquid scintillation counting (PerkinElmer).

NKCC1 pThr203/207/212 = test: Choroid plexus NKCC1 immunoblot in rat IVH model; type: in vivo
KCC1 pThr927/pThr983 = test: Choroid plexus KCC1 phospho-IP/immunoblot in rat IVH model; type: in vivo
KCC4 pThr926/pThr980 = test: Choroid plexus KCC4 phospho-IP/immunoblot in rat IVH model; type: in vivo
[2] = tested on: CSF secretion by choroid plexus epithelium; test: Rate of CSF production after IVH with intracerebroventricular drug; type: in vivo; settings: rat; ZT-1a treatment for 48 h at 10 µM
[3] = ZT-1a content in plasma and brain of sham and tMCAO mice (LC-MS/MS); type: in vivo, mouse
[4] = rat CPe 48 h post IVH + 1a, replicates

Compound: Cc1cc(C(C#N)c2ccc(Cl)cc2)c(Cl)cc1NC(=O)c1cc(Cl)ccc1O (stereo not drawn) [ZT-1a, 5-chloro-N-(5-chloro-4-((4-chlorophenyl)(cyano)methyl)-2-methylphenyl)-2-hydroxybenzamide]
- inhibition at 3 µM (KCC3 pThr991; Homo sapiens, HEK293, 3 µM, HEK-293 cells, n = 4, read-out: inhibition of phosphorylation of KCC sites 1/2): 65 to 77%
- KCC3 pThr991 / KCC3 (KCC3 pThr991; ZT-1a 0.3 uM): 0.89 and 0.932 and 0.861 and 0.828
- KCC3 pThr991 / KCC3 (KCC3 pThr991; ZT-1a 1 uM): 0.63 and 0.651 and 0.702 and 0.601
- KCC3 pThr991 / KCC3 (KCC3 pThr991; ZT-1a 3 uM): 0.65 and 0.601 and 0.553 and 0.517
- activity of KCC3 double mutant Thr991Ala/Thr1048Ala ([1]; 86Rb+ flux, 10 µM ZT-1a): failed to increase activity
- 86Rb+ uptake ([1]; Hypotonic low Cl-): 20886.3 and 22005.7 and 21031.7 and 19121.7 and 18316.2 and 19001.7
- 86Rb+ uptake ([1]; Isotonic control): 27112.3 and 26091.1 and 31837.7 and 30881.4 and 28673.6 and 29768.2
- 86Rb+ uptake (NKCC1; Fig 3b right, NKCC1, ZT-1a 1 uM, Hypotonic low Cl-): 31312.2 and 30912.6 and 28110.4 and 29118.3 and 28103.5 and 29176.8
- 86Rb+ uptake (NKCC1; Fig 3b right, NKCC1, ZT-1a 1 uM, Isotonic control): 5076.2 and 4867.3 and 5812.7 and 4239.7 and 5129.6 and 5519.2
- 86Rb+ uptake (NKCC1; Fig 3b right, NKCC1, ZT-1a 3 uM, Hypotonic low Cl-): 14078.7 and 13156.2 and 15002.4 and 14182.5 and 14354.3 and 14621.6
- 86Rb+ uptake (NKCC1; Fig 3b right, NKCC1, ZT-1a 3 uM, Isotonic control): 3812.1 and 3286.7 and 4513.3 and 4013.5 and 3012.8 and 3586.3
- 86Rb+ uptake (NKCC1; Fig 3b right, NKCC1, ZT-1a 10 uM, Hypotonic low Cl-): 3712.6 and 5014.2 and 4381.3 and 3518.2 and 4604.5 and 3837.1
- 86Rb+ uptake (NKCC1; Fig 3b right, NKCC1, ZT-1a 10 uM, Isotonic control): 1476.7 and 1378.3 and 1409.2 and 1215.2 and 1522.8 and 1368.4
- 86Rb+ uptake (NKCC1; Fig 3b, NKCC1 + 1a (10 µM), Hypotonic low Cl-): 7709.2 and 9015.3 and 7102.3 and 8791.5 and 8682.5 and 8108.1
- 86Rb+ uptake (NKCC1; Fig 3b, NKCC1 + 1a (10 µM), Isotonic control): 1446.7 and 1247.2 and 1369.6 and 1195.7 and 1501.2 and 1382.8
- NKCC1-mediated K+ influx (NKCC1; ZT-1a at concentration > 1 µM, isotonic or hypotonic low Cl−): significantly inhibited
- NKCC1 pThr203/207/212 / Actin (NKCC1 pThr203/207/212; [4]): 1.03 and 0.7 and 0.5 and 0.9 and 0.81 and 0.55
- reduction of IVH-induced expression of pNKCC1 in CPe (NKCC1 pThr203/207/212; rat, ICV ZT-1a, 48 h post IVH, n = 3): 69 ± 4.3%
- KCC1 pThr983 / Actin (KCC1 pThr927/pThr983; [4]): 0.273 and 0.737 and 0.782 and 0.302 and 0.649 and 0.721
- KCC1 pThr927 / Actin (KCC1 pThr927/pThr983; rat CPe 48 h post IVH + 1a, replicates (Fig 4 source data)): 0.027 and 0.029 and 0.034 and 0.025 and 0.037 and 0.024
- reduction of post-IVH KCC1 phosphorylation at Thr927 (KCC1 pThr927/pThr983; rat CPe, ICV ZT-1a): 12 fold
- reduction of post-IVH KCC1 phosphorylation at Thr983 (KCC1 pThr927/pThr983; rat CPe, ICV ZT-1a): 3.4 fold
- KCC4 / Actin (KCC4 pThr926/pThr980; [4]): 2.09 and 2.11 and 2.1 and 2.05 and 2.15 and 2.12
- KCC4 pThr926 / Actin (KCC4 pThr926/pThr980; [4]): 0.241 and 0.354 and 0.43 and 0.261 and 0.376 and 0.487
- KCC4 pThr980 / Actin (KCC4 pThr926/pThr980; [4]): 0.279 and 0.426 and 0.524 and 0.299 and 0.447 and 0.541
- reduction of post-IVH KCC4 phosphorylation at Thr926/Thr980 (KCC4 pThr926/pThr980; rat CPe, ICV ZT-1a): ~ 2 fold
- decrease of post-IVH CSF hypersecretion [2]: ~ 2.3 fold
- ZT-1a concentration in CL and IL hemispheres of ischemic brains relative to sham brains ([3]; 2 h after 5 mg/kg i.p.): ~ 1.8 fold
- plasma ZT-1a levels in ischemic versus non-ischemic sham mice ([3]; 2 h after 5 mg/kg i.p.): indistinguishable
- plasma ZT-1a concentration ([3]; Fig 6e, Sham mice, individual animals): 329.00 ng/mL and 282.00 ng/mL and 324.00 ng/mL and 520.00 ng/mL and 751.00 ng/mL and 743.08 ng/mL and 457.88 ng/mL and 359.25 ng/mL and 143.14 ng/mL and 588.55 ng/mL and 379.00 ng/mL
